Results taken from ChEMBL document CHEMBL6115036, “Exploration of membrane-active cephalosporin derivatives as potent antibacterial agents against Staphylococcus aureus biofilms and persisters” (Eur J Med Chem, 2025).
In brackets after ≈: the same amount, converted by molar mass. Activity calls are given as the source filed them. The rule behind the calls is not given here.

Columns and labels:
[1] = Hemolytic activity in sheep red blood cells incubated for 1 hr; type: toxicity, cell-based, Ovis aries, Erythrocyte
Escherichia coli = experiment: Antimicrobial activity against Escherichia coli incubated for 16 to 18 hrs by broth dilution assay; type: functional; settings: time 16-18 hrs
[2] = test system: Stenotrophomonas maltophilia; experiment: Antimicrobial activity against Stenotrophomonas maltophilia incubated for 16 to 18 hrs by broth dilution assay; type: functional; settings: time 16-18 hrs
Staphylococcus aureus [3] = experiment: Antimicrobial activity against Staphylococcus aureus incubated for 16 to 18 hrs by broth dilution assay; type: functional; settings: time 16-18 hrs
Enterococcus faecalis = experiment: Antimicrobial activity against Enterococcus faecalis incubated for 16 to 18 hrs by broth dilution assay; type: functional; settings: time 16-18 hrs
Staphylococcus aureus [4] = experiment: Induction of inner membrane permeability in Staphylococcus aureus assessed as increase in fluorescence intensity at 16 ug/ml measured for 20 mins by PI dye based analysis; type: functional, organism-based; settings: dose 16.0 µg/ml
Staphylococcus aureus [5] = experiment: Induction of cytoplasmic membrane depolarization in Staphylococcus aureus assessed as increase in fluorescence intensity at 16 ug/ml measured for 20 mins by DiSC3(5) dye based analysis; type: functional, organism-based; settings: dose 16.0 µg/ml

MIC (Escherichia coli) [µg/mL]	MIC [2] [µg/mL]	MIC (Staphylococcus aureus [3]) [µg/mL]	MIC (Enterococcus faecalis) [µg/mL]	SMILES	HC50 at 1 h [1] [µg/mL]	Activity (Staphylococcus aureus [4])	Activity (Staphylococcus aureus [5])
64	64	0.125	16	CCCCCCNC(=O)c1cc[n+](CC2=C(C(=O)O)N3C(=O)[C@@H](NC(=O)Cc4ccccc4)[C@H]3SC2)cc1.[I-]	> 1280	–	–
–	–	0.25	–	CCCCNC(=O)c1cc[n+](CC2=C(C(=O)OCc3ccc(OC)cc3)N3C(=O)[C@@H](NC(=O)Cc4ccccc4)[C@H]3SC2)cc1.[I-]	–	–	–
–	–	0.25	–	CCCCCCCCNC(=O)c1ccc[n+](CC2=C(C(=O)OCc3ccc(OC)cc3)N3C(=O)[C@@H](NC(=O)Cc4ccccc4)[C@H]3SC2)c1.[I-]	–	Active	Active
–	–	0.25	–	CCCCCCCCCCNC(=O)c1ccc[n+](CC2=C(C(=O)OCc3ccc(OC)cc3)N3C(=O)[C@@H](NC(=O)Cc4ccccc4)[C@H]3SC2)c1.[I-]	–	Active	Active
–	–	0.25	–	CCCCCCNC(=O)c1ccc[n+](CC2=C(C(=O)OCc3ccc(OC)cc3)N3C(=O)[C@@H](NC(=O)Cc4ccccc4)[C@H]3SC2)c1.[I-]	–	–	–
> 128	> 128	128	> 128	CC(=O)OCC1=C(C(=O)OC(c2ccccc2)c2ccccc2)N2C(=O)[C@@H](NC(=O)c3cc[n+](C)cc3)[C@H]2SC1.[I-]	–	–	–
> 128	> 128	0.031	8	CCCCCCCCNC(=O)c1ccc[n+](CC2=C(C(=O)O)N3C(=O)[C@@H](NC(=O)Cc4ccccc4)[C@H]3SC2)c1.[I-]	> 1280	inactive	inactive
> 128	> 128	128	128	CCCC[n+]1ccc(C(=O)N[C@@H]2C(=O)N3C(C(=O)OC(c4ccccc4)c4ccccc4)=C(COC(C)=O)CS[C@H]23)cc1.[I-]	–	–	–
> 128	> 128	4	16	CCCCCCCCCCCCCCNC(=O)c1cc[n+](CC2=C(C(=O)O)N3C(=O)[C@@H](NC(=O)Cc4ccccc4)[C@H]3SC2)cc1.[I-]	151	inactive	inactive
> 128	> 128	0.063	16	CCCCCCCCCCNC(=O)c1cc[n+](CC2=C(C(=O)O)N3C(=O)[C@@H](NC(=O)Cc4ccccc4)[C@H]3SC2)cc1.[I-]	321	inactive	inactive
> 128	> 128	128	> 128	CC(=O)OCC1=C(C(=O)O)N2C(=O)[C@@H](NC(=O)c3cc[n+](C)cc3)[C@H]2SC1.[I-]	–	–	–
> 128	> 128	0.063	16	CCCCCCCCCCNC(=O)c1ccc[n+](CC2=C(C(=O)O)N3C(=O)[C@@H](NC(=O)Cc4ccccc4)[C@H]3SC2)c1.[I-]	318	inactive	inactive
64	64	0.125	16	CCCCCCNC(=O)c1ccc[n+](CC2=C(C(=O)O)N3C(=O)[C@@H](NC(=O)Cc4ccccc4)[C@H]3SC2)c1.[I-]	> 1280	–	–
–	–	0.25	–	CCCCCCCCNC(=O)c1cc[n+](CC2=C(C(=O)OCc3ccc(OC)cc3)N3C(=O)[C@@H](NC(=O)Cc4ccccc4)[C@H]3SC2)cc1.[I-]	–	Active	Active
64	128	0.125	32	CCCCNC(=O)c1ccc[n+](CC2=C(C(=O)O)N3C(=O)[C@@H](NC(=O)Cc4ccccc4)[C@H]3SC2)c1.[I-]	> 1280	–	–
> 128	> 128	0.25	8	CCCCCCCCCCCCNC(=O)c1cc[n+](CC2=C(C(=O)O)N3C(=O)[C@@H](NC(=O)Cc4ccccc4)[C@H]3SC2)cc1.[I-]	254	inactive	inactive

MIC (Escherichia coli) [µg/mL]	MIC [2] [µg/mL]	MIC (Staphylococcus aureus [3]) [µg/mL]	MIC (Enterococcus faecalis) [µg/mL]	SMILES	HC50 at 1 h [1] [µg/mL]	Activity (Staphylococcus aureus [4])	Activity (Staphylococcus aureus [5])
–	–	0.25	–	CCCCCCCCCCNC(=O)c1cc[n+](CC2=C(C(=O)OCc3ccc(OC)cc3)N3C(=O)[C@@H](NC(=O)Cc4ccccc4)[C@H]3SC2)cc1.[I-]	–	Active	Active
–	–	0.25	–	CCCCNC(=O)c1ccc[n+](CC2=C(C(=O)OCc3ccc(OC)cc3)N3C(=O)[C@@H](NC(=O)Cc4ccccc4)[C@H]3SC2)c1.[I-]	–	–	–
> 128	> 128	2	16	CCCCCCCCCCCCCCNC(=O)c1ccc[n+](CC2=C(C(=O)O)N3C(=O)[C@@H](NC(=O)Cc4ccccc4)[C@H]3SC2)c1.[I-]	155	inactive	inactive
> 128	> 128	0.063	16	CCCCCCCCNC(=O)c1cc[n+](CC2=C(C(=O)O)N3C(=O)[C@@H](NC(=O)Cc4ccccc4)[C@H]3SC2)cc1.[I-]	> 1280	inactive	inactive
> 128	> 128	128	128	CCCCCCCCCC[n+]1ccc(C(=O)N[C@@H]2C(=O)N3C(C(=O)O)=C(COC(C)=O)CS[C@H]23)cc1.[I-]	–	–	–
–	–	0.25	–	CCCCCCCCCCCCCCNC(=O)c1ccc[n+](CC2=C(C(=O)OCc3ccc(OC)cc3)N3C(=O)[C@@H](NC(=O)Cc4ccccc4)[C@H]3SC2)c1.[I-]	–	–	–
–	–	0.25	–	COc1ccc(COC(=O)C2=C(C[n+]3ccccc3)CS[C@@H]3[C@H](NC(=O)Cc4ccccc4)C(=O)N23)cc1.[I-]	–	–	–
0.031 (≈ 0.0808 µM)	0.031 (≈ 0.0808 µM)	–	–	C[C@@H](O)[C@H]1C(=O)N2C(C(=O)O)=C(S[C@@H]3CN[C@H](C(=O)N(C)C)C3)[C@H](C)[C@H]12 [MEROPENEM]	> 1280	–	–
64 (≈ 145 µM)	64 (≈ 145 µM)	0.063 (≈ 0.143 µM)	16 (≈ 36.2 µM)	O=C(Cc1ccccc1)N[C@@H]1C(=O)N2C(C(=O)O)=C(CSc3ccncc3)CS[C@H]12	–	–	–
> 128	> 128	16 (≈ 42.4 µM)	> 128	CC(=O)OCC1=C(C(=O)O)N2C(=O)[C@@H](NC(=O)c3ccncc3)[C@H]2SC1	–	–	–
128	128	0.5	32	CCCCCCCC[n+]1ccc(-c2cc[n+](CC3=C(C(=O)OCc4ccc(OC)cc4)N4C(=O)[C@@H](NC(=O)Cc5ccccc5)[C@H]4SC3)cc2)cc1.[I-].[I-]	> 1280	–	–
64	64	0.5	64	CCCCCC[n+]1ccc(-c2cc[n+](CC3=C(C(=O)OCc4ccc(OC)cc4)N4C(=O)[C@@H](NC(=O)Cc5ccccc5)[C@H]4SC3)cc2)cc1.[I-].[I-]	> 1280	–	–
–	–	0.25	–	CCCCCCNC(=O)c1cc[n+](CC2=C(C(=O)OCc3ccc(OC)cc3)N3C(=O)[C@@H](NC(=O)Cc4ccccc4)[C@H]3SC2)cc1.[I-]	–	–	–
32	64	0.125	32	CCCCNC(=O)c1cc[n+](CC2=C(C(=O)O)N3C(=O)[C@@H](NC(=O)Cc4ccccc4)[C@H]3SC2)cc1.[I-]	> 1280	–	–
–	–	0.25	–	CCCCCCCCCCCCNC(=O)c1ccc[n+](CC2=C(C(=O)OCc3ccc(OC)cc3)N3C(=O)[C@@H](NC(=O)Cc4ccccc4)[C@H]3SC2)c1.[I-]	–	–	–
> 128	> 128	> 128	> 128	CCCC[n+]1ccc(C(=O)N[C@@H]2C(=O)N3C(C(=O)O)=C(COC(C)=O)CS[C@H]23)cc1.[I-]	–	–	–

SMILES	MIC (Escherichia coli) [µg/mL]	MIC [2] [µg/mL]	MIC (Staphylococcus aureus [3]) [µg/mL]	MIC (Enterococcus faecalis) [µg/mL]	HC50 at 1 h [1] [µg/mL]	Activity (Staphylococcus aureus [4])	Activity (Staphylococcus aureus [5])
CCCCCC[n+]1ccc(-c2cc[n+](CC3=C(C(=O)[O-])N4C(=O)[C@@H](NC(=O)Cc5ccccc5)[C@H]4SC3)cc2)cc1.O=C([O-])C(F)(F)F	16	16	0.125	16	> 1280	–	–
CC[n+]1ccc(SCC2=C(C(=O)OCc3ccc(OC)cc3)N3C(=O)[C@@H](NC(=O)Cc4ccccc4)[C@H]3SC2)cc1.O=C([O-])C(F)(F)F	16	16	0.125	16	–	–	–
CCCCCCCC[n+]1ccc(-c2cc[n+](CC3=C(C(=O)[O-])N4C(=O)[C@@H](NC(=O)Cc5ccccc5)[C@H]4SC3)cc2)cc1.O=C([O-])C(F)(F)F	64	64	0.125	16	> 1280	–	–
CCCC[n+]1ccc(SCC2=C(C(=O)O)N3C(=O)[C@@H](NC(=O)Cc4ccccc4)[C@H]3SC2)cc1.O=C([O-])C(F)(F)F	4	8	0.063	8	–	–	–
CCCCCC[n+]1ccc(SCC2=C(C(=O)OCc3ccc(OC)cc3)N3C(=O)[C@@H](NC(=O)Cc4ccccc4)[C@H]3SC2)cc1.O=C([O-])C(F)(F)F	64	64	0.063	16	–	–	–
CCCCCC[n+]1ccc(SCC2=C(C(=O)O)N3C(=O)[C@@H](NC(=O)Cc4ccccc4)[C@H]3SC2)cc1.O=C([O-])C(F)(F)F	32	32	0.063	8	–	–	–
CCCC[n+]1ccc(SCC2=C(C(=O)OCc3ccc(OC)cc3)N3C(=O)[C@@H](NC(=O)Cc4ccccc4)[C@H]3SC2)cc1.O=C([O-])C(F)(F)F	16	32	0.125	16	–	–	–
CC[n+]1ccc(SCC2=C(C(=O)O)N3C(=O)[C@@H](NC(=O)Cc4ccccc4)[C@H]3SC2)cc1.O=C([O-])C(F)(F)F	8	8	0.063	8	–	–	–
